Measured values as given in ChEMBL document CHEMBL4152201, “Novel sarsasapogenin-triazolyl hybrids as potential anti-Alzheimer's agents: Design, synthesis and biological evaluation” (Eur J Med Chem, 2018).
Each block holds one molecule with its values, some of them ahead of it. Activity calls are given as the source filed them. No cut-off for these calls is given here.

Legend:
[1] = target: T1, Amyloid-beta precursor protein (Homo sapiens, UniProt P05067); test: Inhibition of amyloid beta (1 to 42) (unknown origin) self-aggregation at 20 uM after 24 hrs by thioflavin-T fluorescence assay relative to control
T1 sequence (P05067 whole entry): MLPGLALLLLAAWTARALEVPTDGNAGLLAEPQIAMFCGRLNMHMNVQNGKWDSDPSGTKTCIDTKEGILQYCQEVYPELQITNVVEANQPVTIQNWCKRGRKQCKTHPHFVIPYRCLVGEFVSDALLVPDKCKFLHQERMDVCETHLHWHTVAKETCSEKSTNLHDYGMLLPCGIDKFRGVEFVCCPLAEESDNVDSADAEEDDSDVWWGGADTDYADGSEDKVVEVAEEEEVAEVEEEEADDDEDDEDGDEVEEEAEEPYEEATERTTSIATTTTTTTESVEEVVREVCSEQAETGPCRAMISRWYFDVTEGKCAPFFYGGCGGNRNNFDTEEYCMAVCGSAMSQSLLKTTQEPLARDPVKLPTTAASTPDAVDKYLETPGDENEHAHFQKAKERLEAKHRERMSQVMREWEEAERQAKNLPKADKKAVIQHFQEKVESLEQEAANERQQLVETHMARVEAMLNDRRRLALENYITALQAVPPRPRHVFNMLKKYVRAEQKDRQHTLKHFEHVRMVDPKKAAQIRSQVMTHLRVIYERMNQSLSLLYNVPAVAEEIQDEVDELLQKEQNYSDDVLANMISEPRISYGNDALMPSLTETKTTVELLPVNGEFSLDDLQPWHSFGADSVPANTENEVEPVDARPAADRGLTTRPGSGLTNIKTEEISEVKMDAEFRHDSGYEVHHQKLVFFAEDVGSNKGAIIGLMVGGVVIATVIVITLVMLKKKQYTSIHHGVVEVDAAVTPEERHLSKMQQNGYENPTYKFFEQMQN

Mus musculus [2] = test: (§1) Neuroprotective activity in Kunming mouse model of amyloid beta (1 to 42) oligomer-induced memory impairment assessed as reduction in neuronal degeneration by measuring clear and intact neurons in CA1 and CA3 region at 1.3 mg/kg, po starting from day 1 of amyloid beta (1 to 42) oligomer treatment and measured on day 7 by TUNEL assay; type: functional, organism-based
Mus musculus [3] = test: Toxicity in Kunming mouse model of amyloid beta (1 to 42) oligomer-induced memory impairment assessed as effect on number of arm entries at 1.3 mg/kg/day, po starting from day 1 of amyloid beta (1 to 42) oligomer treatment and measured on day 7 by Y-maze test; type: organism-based; conditions: in vivo
Mus musculus [4] = test: Cognitive enhancing effect in Kunming mouse model of amyloid beta (1 to 42) oligomer-induced memory impairment increase in time spent in target quadrant by measuring increase in number of platform crossings at 1.3 mg/kg/day, po starting from day 1 of amyloid beta (1 to 42) oligomer treatment and measured on day 12 by Morris water maze test; type: functional, organism-based
Mus musculus [5] = test: as §1, with “neural” for “neuronal”, “degeneration” for “degeneration by measuring clear and intact neurons”, “CA1” for “CA1 and CA3”, “Nissl's staining-based” for “TUNEL”; type: functional, organism-based
Mus musculus [6] = test: Neuroprotective activity in Kunming mouse model of amyloid beta (1 to 42) oligomer-induced memory impairment assessed as reduction in neuronal degeneration by measuring reduction in degenerative changes in nucleus of CA1 and CA3 region at 1.3 mg/kg, po starting from day 1 of amyloid beta (1 to 42) oligomer treatment and measured on day 7 by TUNEL assay; type: functional, organism-based
Mus musculus [7] = test: Cognitive enhancing effect in Kunming mouse model of amyloid beta (1 to 42) oligomer-induced memory impairment assessed as […] in spontaneous alternation behaviors at 1.3 mg/kg/day, po starting from day 1 of amyloid beta (1 to 42) oligomer treatment and measured on day 7 by Y-maze test; type: functional, organism-based
Mus musculus [8] = test: (§2) Cognitive enhancing effect in Kunming mouse model of amyloid beta (1 to 42) oligomer-induced memory impairment assessed as longer escape latency at 1.3 mg/kg, po starting from day 1 of amyloid beta (1 to 42) oligomer treatment and measured on day 7 by passive avoidance test; type: functional, organism-based
Mus musculus [9] = test: as §2, with “induction of fewer entries into dark compartment” for “longer escape latency”; type: functional, organism-based
Mus musculus [10] = test: Neuroprotective activity amyloid beta (1 to 42) oligomer-induced memory impaired Kunming mouse assessed as reduction in apoptotic cells in CA1 and CA3 hipocampal neurons at 1.3 mg/kg, po starting from day 1 of amyloid beta (1 to 42) oligomer treatment and measured on day 7 by TUNEL assay; type: functional, organism-based
Mus musculus [11] = test: Memory enhancing effect in Kunming mouse model of amyloid beta (1 to 42) oligomer-induced memory impairment assessed as increase in preferential index in retention session of 1 hr at 1.3 mg/kg/day, po starting from day 1 of amyloid beta (1 to 42) oligomer treatment and measured on day 7 by novel object recognition test; type: functional, organism-based
SH-SY5Y [12] = test: Neuroprotective activity against H2O2-induced oxidative stress in human SH-SY5Y cells assessed as cell viability at 50 uM pre-incubated for 1 hr followed by H2O2 addition and measured after 4 hrs by MTT assay relative to control; type: functional; conditions: read-out: Activity
[13] = target: T1, Amyloid-beta precursor protein; test: Inhibition of amyloid beta (1 to 42) (unknown origin) self-aggregation after 24 hrs by thioflavin-T fluorescence assay
SH-SY5Y [14] = test: Neuroprotective activity against H2O2-induced oxidative stress in human SH-SY5Y cells assessed as cell viability at 25 uM pre-incubated for 1 hr followed by H2O2 addition and measured after 4 hrs by MTT assay relative to control; type: functional; conditions: read-out: Activity
SH-SY5Y [15] = test: Neuroprotective activity against H2O2-induced oxidative stress in human SH-SY5Y cells assessed as cell viability at 12.5 uM pre-incubated for 1 hr followed by H2O2 addition and measured after 4 hrs by MTT assay relative to control; type: functional; conditions: read-out: Activity

inhibition [1]: 11.8%
SMILES: CCn1cc(CNC(=O)[C@@H](C)CC[C@H]2O[C@H]3C[C@H]4[C@@H]5CC[C@@H]6C[C@@H](OCc7ccccc7)CC[C@]6(C)[C@H]5CC[C@]4(C)[C@H]3[C@@H]2C)nn1

inhibition [1]: 20.8%
SMILES: C[C@H]1[C@H]2[C@H](C[C@H]3[C@@H]4CC[C@@H]5C[C@@H](OCc6ccccc6)CC[C@]5(C)[C@H]4CC[C@]23C)O[C@@H]1CC[C@H](C)C(=O)NCc1cn(Cc2ccncc2)nn1

inhibition [1]: 64.8%
SMILES: COc1cccc(Cn2cc(CNC(=O)[C@@H](C)CC[C@H]3O[C@H]4C[C@H]5[C@@H]6CC[C@@H]7C[C@@H](OCc8ccccc8)CC[C@]7(C)[C@H]6CC[C@]5(C)[C@H]4[C@@H]3C)nn2)c1

inhibition [1]: 37.5%
SMILES: C[C@H]1[C@H]2[C@H](C[C@H]3[C@@H]4CC[C@@H]5C[C@@H](OCc6ccccc6)CC[C@]5(C)[C@H]4CC[C@]23C)O[C@@H]1CC[C@H](C)C(=O)NCc1cn(Cc2ccc(F)cc2)nn1

More lines, now with the values behind:

SMILES: C[C@H]1[C@H]2[C@H](C[C@H]3[C@@H]4CC[C@@H]5C[C@@H](OCc6ccccc6)CC[C@]5(C)[C@H]4CC[C@]23C)O[C@@H]1CC[C@H](C)C(=O)NCc1cn(Cc2ccccc2)nn1
inhibition [1]: 64.2%

SMILES: COc1cc(Cn2cc(CNC(=O)[C@@H](C)CC[C@H]3O[C@H]4C[C@H]5[C@@H]6CC[C@@H]7C[C@@H](OCc8ccccc8)CC[C@]7(C)[C@H]6CC[C@]5(C)[C@H]4[C@@H]3C)nn2)cc(OC)c1
inhibition [1]: 31.5%

SMILES: COc1cc2c(cc1OC)C(=O)C(CC1CCN(Cc3ccccc3)CC1)C2.Cl (configuration not stated) [DONEPEZIL HYDROCHLORIDE]
Activity (Mus musculus [2]): Active | Activity (Mus musculus [3]): Non-Toxic | Activity (Mus musculus [4]): Active | Activity (Mus musculus [5]): Active | Activity (Mus musculus [6]): Active | Activity (Mus musculus [7]): Active | Activity (Mus musculus [8]): Active | Activity (Mus musculus [9]): Active | Activity (Mus musculus [10]): Active | Activity (Mus musculus [11]): Active

SMILES: CCCn1cc(CNC(=O)[C@@H](C)CC[C@H]2O[C@H]3C[C@H]4[C@@H]5CC[C@@H]6C[C@@H](OCc7ccccc7)CC[C@]6(C)[C@H]5CC[C@]4(C)[C@H]3[C@@H]2C)nn1
inhibition [1]: 21.8%

SMILES: C[C@H]1CC[C@@]2(OC1)O[C@H]1C[C@H]3[C@@H]4CC[C@@H]5C[C@@H](O)CC[C@]5(C)[C@H]4CC[C@]3(C)[C@H]1[C@@H]2C [SARSASAPOGENIN]
viability at 50 µM (SH-SY5Y [12]): 71.3% | IC50 [13]: > 100 µM | inhibition [1]: 16.4% | viability at 25 µM (SH-SY5Y [14]): 71% | viability at 12.5 µM (SH-SY5Y [15]): 68.2%
